In PubChem BioAssay (NCI) one finds GI50 and TGI data, which are given here for 9 compounds.

Structures are written as SMILES.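 Exposure lasted 48 hours, with cells grown in 96-well plates and compounds tested at five concentrations. GI50 = concentration required for 50% inhibition of growth. Definition used: TGI = concentration required for complete inhibition of growth.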

As a reminder, the GI50 is the concentration giving 50% growth inhibition. Usually TGI stands for the concentration at which net growth stops. Low values mean greater sensitivity of the cells, high ones lower sensitivity of the cells.

Some test systems named below: ACHN renal; BT-549 breast; COLO 205 colon; HS 578T breast; MCF7 breast; NCI/ADR-RES ovarian; OVCAR-5 ovarian; PC-3 prostate; SF-295 CNS; SR leukemia.
Assay in all cases: DTP human tumour cell line panel, 48 h

As to `NCCOCCOCCNc1nc(-c2ccccc2)nc(N2CCN(c3ccccn3)CC2)n1`, the GI50 in the assay with ACHN renal was 14.5 µM; in the assay on BT-549 breast, 11.6 µM; in the assay on COLO 205 colon, 6.35 µM; with HS 578T breast it was 15.4 µM; in the assay on MCF7 breast, 12.5 µM; in the assay with NCI/ADR-RES ovarian it was 16 µM. Also, the GI50 is 16.1 µM in the assay with OVCAR-5 ovarian, 15.7 µM in the assay on PC-3 prostate, 17.5 µM with SF-295 CNS and 1.62 µM in the assay with SR leukemia. Further, the TGI in the assay on ACHN renal is 27.9 µM; in the assay with BT-549 breast, 24 µM; in the assay with COLO 205 colon, 21.1 µM; in the assay with HS 578T breast it was 41 µM; in the assay with MCF7 breast it was 32.2 µM; with NCI/ADR-RES ovarian, 32.4 µM. In addition, the concentration for total growth inhibition (TGI) was found to be 30.4 µM in the assay on OVCAR-5 ovarian, 30.8 µM in the assay on PC-3 prostate, 36 µM in the assay on SF-295 CNS and 4.64 µM in the assay with SR leukemia.
For `Cc1nc2ccccc2c(/C=C/c2ccc(Cl)cc2)c1C(=O)/C=C/c1ccc(C(F)(F)F)cc1`, the GI50 is 0.241 µM in the assay on ACHN renal; 0.623 µM in the assay with BT-549 breast; 1.32 µM with COLO 205 colon; 0.659 µM in the assay on HS 578T breast; 0.303 µM with MCF7 breast; 0.619 µM in the assay with NCI/ADR-RES ovarian. Besides, the GI50 with OVCAR-5 ovarian is 0.821 µM; in the assay on PC-3 prostate, 0.537 µM; in the assay on SF-295 CNS it was 1.47 µM; in the assay on SR leukemia, 0.25 µM. In addition, the TGI amounted to 0.594 µM with ACHN renal; 2.1 µM in the assay with BT-549 breast; 3.25 µM with COLO 205 colon; 3.57 µM in the assay on HS 578T breast; 1.55 µM with MCF7 breast; 3.63 µM in the assay with NCI/ADR-RES ovarian. Further, the TGI in the assay on OVCAR-5 ovarian came to 2.84 µM; in the assay with PC-3 prostate, 2.18 µM; with SF-295 CNS, 2.79 µM; in the assay on SR leukemia, 2.26 µM.
As for `C#CCSc1cc(Cl)c(C)cc1S(=O)(=O)Nc1nc2ccccc2o1`, the GI50 with ACHN renal is 35.2 µM; with BT-549 breast, 27.8 µM; in the assay on COLO 205 colon, 26 µM; with HS 578T breast it was 44.2 µM; with MCF7 breast, 49.7 µM; in the assay on NCI/ADR-RES ovarian it was 42.9 µM. Further, the GI50 with OVCAR-5 ovarian is 51.6 µM; with PC-3 prostate it was 32.6 µM; in the assay with SF-295 CNS, 25.5 µM; in the assay with SR leukemia, 35.6 µM. For the same compound, the TGI in the assay on ACHN renal is more than 100 µM; with BT-549 breast, 65.5 µM; in the assay with COLO 205 colon it was 71.7 µM; in the assay on HS 578T breast, more than 100 µM; in the assay on MCF7 breast, more than 100 µM; in the assay on NCI/ADR-RES ovarian it was more than 100 µM. In addition, the TGI with OVCAR-5 ovarian is more than 100 µM; in the assay with PC-3 prostate, more than 100 µM; in the assay on SF-295 CNS, 61.2 µM; with SR leukemia, more than 100 µM.
Consider `COc1ccc2ccccc2c1C1NC(=O)c2ccccc2N1` (stereo unspecified), for which the total growth inhibition concentration (TGI) was more than 84.5 µM with ACHN renal; more than 100 µM in the assay with BT-549 breast; more than 31.3 µM in the assay with HS 578T breast; 29.4 µM in the assay on MCF7 breast; 3.02 µM with NCI/ADR-RES ovarian; more than 31.3 µM in the assay with OVCAR-5 ovarian. In addition, the TGI was determined as 3.19 µM in the assay with PC-3 prostate and 1.67 µM with SR leukemia.
Consider `C[n+]1c2cc(N)ccc2cc2ccc(N)cc21`, for which the GI50 in the assay on ACHN renal is 1 µM [middle of 4 runs]; in the assay with BT-549 breast it was 1.61 µM [middle of 4 runs]; in the assay with COLO 205 colon, 441 nM [middle of 4 runs]; in the assay on HS 578T breast, 1.54 µM [middle of 4 runs]; with NCI/ADR-RES ovarian, 2.72 µM [middle of 4 runs]; in the assay on OVCAR-5 ovarian, 1.1 µM [middle of 4 runs]. In addition, the GI50 in the assay on PC-3 prostate was 696 nM [middle of 4 runs]; in the assay with SR leukemia it was 687 nM [middle of 4 runs]. The total growth inhibition concentration (TGI) was 4.05 µM [middle of 4 runs] in the assay with BT-549 breast, 6.31 µM [middle of 4 runs] with HS 578T breast, 5.8 µM [middle of 4 runs] in the assay with PC-3 prostate and 5.63 µM [middle of 4 runs] in the assay with SF-295 CNS.
Turning to `O=C(Nc1ccc(Cl)c(Cl)c1)Nc1c(Oc2ccc(Cl)c(Cl)c2)ccc(Cl)c1S(=O)(=O)O`, the GI50 with BT-549 breast was 1.71 µM; in the assay with COLO 205 colon it was 2.39 µM; with HS 578T breast it was 2.21 µM; with MCF7 breast it was 0.388 µM; with NCI/ADR-RES ovarian it was 0.959 µM; in the assay on OVCAR-5 ovarian it was 4.09 µM. Besides, the GI50 with PC-3 prostate was 3.59 µM; in the assay on SR leukemia, 0.504 µM. Further, the total growth inhibition concentration (TGI) in the assay with BT-549 breast was more than 100 µM; with COLO 205 colon, more than 100 µM; in the assay with HS 578T breast, 8.79 µM; in the assay on MCF7 breast it was more than 100 µM; in the assay on NCI/ADR-RES ovarian, more than 100 µM; in the assay on OVCAR-5 ovarian it was more than 100 µM. The total growth inhibition concentration (TGI) in the assay with PC-3 prostate and in the assay on SR leukemia was more than 100 µM in each case.
For the compound `Oc1ccc(C(c2ccc(O)cc2)c2ccc(O)cc2)cc1`, the TGI with ACHN renal was 90.8 µM; in the assay with BT-549 breast, 54.2 µM; with COLO 205 colon, 20.8 µM; in the assay on HS 578T breast, 56.1 µM; with MCF7 breast, more than 100 µM; with NCI/ADR-RES ovarian, 44.2 µM. Moreover, the TGI in the assay on PC-3 prostate is 66.5 µM; in the assay with SF-295 CNS it was more than 100 µM; in the assay on SR leukemia, 75.3 µM.
As to `CO/N=C(\C)c1ccc(Nc2cc(-c3ccccc3)nc3ccc(OC)cc23)cc1`, the GI50 was 3.27 µM in the assay with ACHN renal; 5.61 µM in the assay with BT-549 breast; 7.02 µM in the assay on COLO 205 colon; 3.5 µM in the assay on HS 578T breast; 5.01 µM in the assay on MCF7 breast; 2.61 µM in the assay on NCI/ADR-RES ovarian. Also, the GI50 with OVCAR-5 ovarian is 5.2 µM; in the assay with PC-3 prostate, 4.17 µM; with SF-295 CNS, 2.02 µM. Moreover, the TGI in the assay on ACHN renal was 12.5 µM; with BT-549 breast it was 21.4 µM; with COLO 205 colon, more than 100 µM; with HS 578T breast, 9.44 µM; with MCF7 breast it was 24.4 µM; in the assay with NCI/ADR-RES ovarian, 11.2 µM. The figures for the TGI in the assay with OVCAR-5 ovarian, in the assay with PC-3 prostate and with SF-295 CNS were 40.3 µM, 16.2 µM and 4.82 µM, respectively.
Take `NCCCCCCCn1c2c(c3ccccc3c1=O)C(=O)c1ccccc1-2`: the GI50 in the assay with ACHN renal was 1.6 µM; in the assay with BT-549 breast, 1.7 µM; in the assay with COLO 205 colon, 2.07 µM; in the assay with HS 578T breast, 1.8 µM; in the assay with MCF7 breast, 1.1 µM; with NCI/ADR-RES ovarian, 2.56 µM. Further, the results for the GI50 in the assay with OVCAR-5 ovarian, in the assay on PC-3 prostate and with SF-295 CNS were 1.7 µM, 1.32 µM and 1.74 µM, respectively. The TGI in the assay on ACHN renal stood at 3.47 µM; with BT-549 breast, 3.14 µM; in the assay on COLO 205 colon, 5.15 µM; in the assay on HS 578T breast, 4.31 µM; in the assay on MCF7 breast, 2.71 µM; with NCI/ADR-RES ovarian, 7.87 µM. The concentration for total growth inhibition (TGI) in the assay with OVCAR-5 ovarian was 3.97 µM; with PC-3 prostate, 2.72 µM; in the assay on SF-295 CNS it was 4.28 µM.
